Experimental data reported in PubChem BioAssay (NCI).
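1) Cells in 96-well plates. 2) Compound, 48 h, 5 concentrations. 3) Linear interpolation between surrounding doses. 4) Unreached endpoint = highest concentration. Abbreviation: GI50, concentration required for 50% inhibition of growth. The concentration for full growth arrest is given as TGI.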

Assays:
Assay in all cases: NCI anticancer screen, dose series, 48 h
[1] = system: HOP-92 NSCLC
[2] = system: OVCAR-4 ovarian
[3] = system: HCT-116 colon
[4] = system: TK-10 renal
[5] = system: HCC-2998 colon
[6] = system: HOP-62 NSCLC
[7] = system: UACC-257 melanoma
[8] = system: BT-549 breast
[9] = system: LOX IMVI melanoma
[10] = system: RXF 393 renal
[11] = system: RPMI-8226 leukemia
[12] = system: OVCAR-5 ovarian
[13] = system: COLO 205 colon
[14] = system: EKVX NSCLC
[15] = system: MALME-3M melanoma
[16] = system: MOLT-4 leukemia
[17] = system: MDA-MB-231 breast
[18] = system: M14 melanoma
[19] = system: A498 renal
[20] = system: SK-MEL-5 melanoma
[21] = system: U251 CNS
[22] = system: ACHN renal
[23] = system: OVCAR-8 ovarian
[24] = system: SK-MEL-2 melanoma
[25] = system: SK-OV-3 ovarian
[26] = system: SF-295 CNS
[27] = system: DU-145 prostate

Question: How did the GI50 [1] turn out when `CCCCOc1ccc(/C=N/Nc2cc(C)nc3ccc(Cl)cc23)cc1` was run?
Answer: 1430 nM

Question: What about the TGI [1] of the same molecule?
Answer: 2990 nM

Question: What about the GI50 [2] of the same molecule?
Answer: 1560 nM

Question: What about the TGI [2] of the same molecule?
Answer: 3000 nM

Question: What about the GI50 [3] of the same molecule?
Answer: 2130 nM

Question: What about the TGI [3] of the same molecule?
Answer: 4850 nM

Question: And the GI50 [4]?
Answer: 1870 nM

Question: What about the TGI [4] of the same molecule?
Answer: 3280 nM

Question: And the GI50 [5]?
Answer: 1910 nM

Question: And the TGI [5]?
Answer: 3380 nM

Question: And the GI50 [6]?
Answer: 1620 nM

Question: And the TGI [6]?
Answer: 3280 nM

Question: What about the GI50 [7] of the same molecule?
Answer: 1610 nM

Question: What about the TGI [7] of the same molecule?
Answer: 3110 nM

Question: What about the GI50 [8] of the same molecule?
Answer: 1760 nM

Question: And the TGI [8]?
Answer: 3430 nM

Question: And the GI50 [9]?
Answer: 1690 nM

Question: And the TGI [9]?
Answer: 3090 nM

Question: And the GI50 [10]?
Answer: 1410 nM

Question: And the TGI [10]?
Answer: 2740 nM

Question: And the GI50 [11]?
Answer: 1920 nM

Question: And the TGI [11]?
Answer: 4530 nM

Question: And the GI50 [12]?
Answer: 1820 nM

Question: And the TGI [12]?
Answer: 3240 nM

Question: And the GI50 [13]?
Answer: 2010 nM

Question: What about the TGI [13] of the same molecule?
Answer: 4030 nM

Question: What about the GI50 [14] of the same molecule?
Answer: 1630 nM

Question: What about the TGI [14] of the same molecule?
Answer: 3010 nM

Question: What about the GI50 [15] of the same molecule?
Answer: 1850 nM

Question: And the TGI [15]?
Answer: 3380 nM

Question: And the GI50 [16]?
Answer: 1700 nM

Question: And the TGI [16]?
Answer: 3610 nM

Question: And the GI50 [17]?
Answer: 1740 nM

Question: What about the TGI [17] of the same molecule?
Answer: 3250 nM

Question: What about the GI50 [18] of the same molecule?
Answer: 1890 nM

Question: What about the TGI [18] of the same molecule?
Answer: 3910 nM

Question: And the GI50 [19]?
Answer: 1520 nM

Question: And the TGI [19]?
Answer: 2930 nM

Question: And the GI50 [20]?
Answer: 1610 nM

Question: And the TGI [20]?
Answer: 2970 nM

Question: And the GI50 [21]?
Answer: 1720 nM

Question: What about the TGI [21] of the same molecule?
Answer: 3190 nM

Question: What about the GI50 [22] of the same molecule?
Answer: 1730 nM

Question: And the TGI [22]?
Answer: 3100 nM

Question: What about the GI50 [23] of the same molecule?
Answer: 1780 nM

Question: And the TGI [23]?
Answer: 3460 nM

Question: And the GI50 [24]?
Answer: 1850 nM

Question: What about the TGI [24] of the same molecule?
Answer: 3430 nM

Question: What about the GI50 [25] of the same molecule?
Answer: 1800 nM

Question: What about the TGI [25] of the same molecule?
Answer: 3270 nM

Question: What about the GI50 [26] of the same molecule?
Answer: 1660 nM

Question: And the TGI [26]?
Answer: 3100 nM

Question: What about the GI50 [27] of the same molecule?
Answer: 1820 nM
